In patent publication US20250171452A1 (Viscient Bio, Inc., priority 2022, published 2025):
Where a name gives a salt, the structure may show the parent alone.

target: IDO2 (Homo sapiens (Human), UniProt Q6ZQW0); assay: Cellular IDO2 assay, doxycycline and 5-methoxy-L-tryptophan medium, colorimetric; type: cell-based; conditions: cellular level, 72 h incubation, signal at 480 nm
Sequence (Q6ZQW0 whole entry, species assumed): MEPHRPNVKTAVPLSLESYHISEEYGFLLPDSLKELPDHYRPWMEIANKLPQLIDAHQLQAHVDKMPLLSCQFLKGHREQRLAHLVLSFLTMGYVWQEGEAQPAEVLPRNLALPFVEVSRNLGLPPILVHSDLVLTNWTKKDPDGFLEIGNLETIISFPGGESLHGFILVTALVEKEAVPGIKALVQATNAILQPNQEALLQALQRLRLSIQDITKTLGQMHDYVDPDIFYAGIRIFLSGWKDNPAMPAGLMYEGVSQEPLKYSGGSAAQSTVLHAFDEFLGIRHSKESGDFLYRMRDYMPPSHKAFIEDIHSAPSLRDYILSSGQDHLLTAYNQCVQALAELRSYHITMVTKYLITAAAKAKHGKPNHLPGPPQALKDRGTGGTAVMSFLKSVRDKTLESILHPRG

Row | Molecule | IC50 [nM]
1 | O=C(NCc1ccc2c(=O)n3c(nc2c1)C(=O)c1cc(F)ccc1-3)OCc1ccccc1 [Compound 96, benzyl ((8-fluoro-6,12-dioxo-6,12-dihydroindolo[2,1-b]quinazolin-3-yl)methyl)carbamate] | < 50
2 | 3-bromo-8-nitroindolo[2,1-b]quinazoline-6,12-dione [Compound 65] | 50 to 500
3 | CS(=O)(=O)NCc1ccc2c(=O)n3c(nc2c1)C(=O)c1cc(F)ccc1-3 [Compound 95, N-((8-fluoro-6,12-dioxo-6,12-dihydroindolo[2,1-b]quinazolin-3-yl)methyl)methanesulfonamide] | < 50
4 | NC(=O)NCc1ccc2nc3n(c(=O)c2c1)-c1ccc(F)cc1C3=O [Compound 139, 1-((8-fluoro-6,12-dioxo-6,12-dihydroindolo[2,1-b]quinazolin-2-yl)methyl)urea] | < 50
5 | O=C(O)c1ccc2nc3n(c(=O)c2c1)-c1ccc(F)cc1C3=O [Compound 153, 8-fluoro-6,12-dioxo-6,12-dihydroindolo[2,1-b]quinazoline-2-carboxylic Acid] | > 500
6 | Cc1ccc2nc3n(c(=O)c2c1Cl)-c1ccc(Br)cc1C3=O [Compound 105] | < 50
7 | Cc1ccc2nc3n(c(=O)c2c1)-c1ccc([N+](=O)[O-])cc1C3=O [Compound 52, 2-Methyl-8-nitroindolo[2,1-b]quinazoline-6,12-dione] | < 50
8 | O=C1c2c(ccc(F)c2F)-n2c1nc1ccccc1c2=O [Compound 60, 7,8-Difluoroindolo[2,1-b]quinazoline-6,12-dione] | < 50
9 | CO/N=C1/c2cc(F)ccc2-n2c1nc1ccc(-n3ccnc3)cc1c2=O [Compound 132] | < 50
10 | CC(C)(C)OC(=O)NCc1ccc2c(=O)n3c(nc2c1)C(=O)c1cc(F)ccc1-3 [Compound 92] | < 50
11 | O=C1c2cc(F)ccc2-n2c1nc1cc(-c3c[nH]cn3)ccc1c2=O [Compound 89, 8-fluoro-3-(1H-imidazol-4-yl)indolo[2,1-b]quinazoline-6,12-dione] | 50 to 500
12 | CON=C1c2cc(F)ccc2-n2c1nc1c(Nc3ccc(F)cc3)cccc1c2=O (stereo in doubt) [Compound 122, (Z)-8-Fluoro-4-((4-fluorophenyl)amino)-6-(methoxyimino)indolo[2,1-b]quinazolin-12(6H)-one] | > 500
13 | N=C(N)NCc1ccc2nc3n(c(=O)c2c1)-c1ccc(F)cc1C3=O [Compound 147, 1-((8-fluoro-6,12-dioxo-6,12-dihydroindolo[2,1-b]quinazolin-2-yl)methyl)guanidine] | 50 to 500
14 | O=C1c2cc([N+](=O)[O-])ccc2-n2c1nc1cccc(Br)c1c2=O [Compound 55, 1-Bromo-8-nitroindolo[2,1-b]quinazoline-6,12-dione] | > 500
15 | O=C1c2cc(F)ccc2-n2c1nc1cc(NCc3ccc(F)cc3)ccc1c2=O [Compound 81] | < 50
16 | O=C1c2cc(F)ccc2-n2c1nc1cc(-n3ccnc3)ccc1c2=O [Compound 98, 8-fluoro-3-(1H-imidazol-1-yl)indolo[2,1-b]quinazoline-6,12-dione] | < 50
17 | CS(=O)(=O)c1ccc2c(c1)C(=O)c1nc3cc(Cl)cc(Cl)c3c(=O)n1-2 [Compound 87] | < 50
18 | CO/N=C1/c2cc(C#N)ccc2-n2c1nc1ccc(CN3CCOCC3)cc1c2=O [Compound 131, (Z)-6-(methoxyimino)-2-(morpholinomethyl)-12-oxo-6,12-dihydroindolo[2,1-b]quinazoline-8-carbonitrile] | < 50
19 | N#Cc1ccc2c(c1)C(=O)c1nc3c(Nc4ccc(F)cc4)cccc3c(=O)n1-2 [Compound 119, 4-((4-Fluorophenyl)amino)-6,12-dioxo-6,12-dihydroindolo[2,1-b]quinazoline-8-carbonitrile] | < 50
20 | O=C1c2cc(C(F)(F)F)ccc2-n2c1nc1ccccc1c2=O [Compound 53, 8-(Trifluoromethyl)indolo[2,1-b]quinazoline-6,12-dione] | < 50
21 | O=C1c2cc([N+](=O)[O-])ccc2-n2c1nc1cnccc1c2=O [Compound 57, 9-Nitropyrido[3′,4′:4,5]pyrimido[1,2-a]indole-5,11-dione] | < 50
22 | NS(=O)(=O)NCc1ccc2c(=O)n3c(nc2c1)C(=O)c1cc(F)ccc1-3 [Compound 88] | < 50
23 | O=C1c2cc(SCc3ccccc3)ccc2-n2c1nc1c(Cl)cccc1c2=O [Compound 117] | < 50
24 | O=C1c2cc(Br)ccc2-n2c1nc1c(Nc3ccc(F)cc3)cccc1c2=O [Compound 121, 8-bromo-4-((4-fluorophenyl)amino)indolo[2,1-b]quinazoline-6,12-dione] | 50 to 500
25 | NCc1cccc2nc3n(c(=O)c12)-c1ccc(F)cc1C3=O [Compound 102] | < 50
26 | CS(=O)(=O)c1ccc2c(c1)/C(=N\O)c1nc3cc(F)ccc3c(=O)n1-2 [Compound 67] | 50 to 500
27 | NCc1cccc2nc3n(c(=O)c12)-c1ccc(F)cc1C3=O [Compound 101, 1-(aminomethyl)-8-fluoroindolo[2,1-b]quinazoline-6,12-dione] | 50 to 500

Second part, the molecule after the results:

Row | IC50 [nM] | Molecule
28 | < 50 | CN(C)Cc1ccc2nc3n(c(=O)c2c1Cl)-c1ccc(Br)cc1C3=O [Compound 107]
29 | < 50 | CON=C1c2cc(F)ccc2-n2c1nc1cc(CNS(C)(=O)=O)ccc1c2=O (stereo in doubt) [Compound 91, (Z)—N-((8-fluoro-6-(methoxyimino)-12-oxo-6,12-dihydroindolo[2,1-b]quinazolin-3-yl)methyl)methanesulfonamide]
30 | < 50 | O=c1c2ccc(Cl)cc2nc2n1-c1ccc(Br)cc1C2 [Compound 76]
31 | < 50 | CC(=O)NCc1ccc2c(=O)n3c(nc2c1)C(=O)c1cc(F)ccc1-3 [Compound 100, N-((8-fluoro-6,12-dioxo-6,12-dihydroindolo[2,1-b]quinazolin-3-yl)methyl)acetamide]
32 | < 50 | N#C/N=C(\N)NCc1ccc2nc3n(c(=O)c2c1)-c1ccc(F)cc1C3=O [Compound 140, 2-cyano-1-((8-fluoro-6,12-dioxo-6,12-dihydroindolo[2,1-b]quinazolin-2-yl)methyl)guanidine]
33 | > 500 | O=C1c2cc(SCc3ccccc3)ccc2-n2c1nc1c(Nc3ccc(F)cc3)cccc1c2=O [Compound 120, 8-(Benzylthio)-4-((4-fluorophenyl)amino)indolo[2,1-b]quinazoline-6,12-dione]
34 | < 50 | CS(=O)(=O)NCc1ccc2nc3n(c(=O)c2c1)-c1ccc(F)cc1C3=O [Compound 145, N-((8-fluoro-6,12-dioxo-6,12-dihydroindolo[2,1-b]quinazolin-2-yl)methyl)methanesulfonamide]
35 | < 50 | O=C1c2cc(F)ccc2-n2c1nc1ccc(-n3ccnc3)cc1c2=O [Compound 137, 8-fluoro-2-(1H-imidazol-1-yl)indolo[2,1-b]quinazoline-6,12-dione]
36 | < 50 | O=C1c2cc(F)ccc2-n2c1nc1ccc(CBr)cc1c2=O [Compound 133, 2-(bromomethyl)-8-fluoroindolo[2,1-b]quinazoline-6,12-dione]
37 | 50 to 500 | N#Cc1ccc2c(c1)C(=O)c1nc3c(Br)ccc(F)c3c(=O)n1-2 [Compound 111]
38 | < 50 | NC(=O)c1ccc2nc3n(c(=O)c2c1)-c1ccc(F)cc1C3=O [Compound 149, 8-fluoro-6,12-dioxo-6,12-dihydroindolo[2,1-b]quinazoline-2-carboxamide]
39 | 50 to 500 | NC(=O)c1ccc2c(c1)Cc1nc3cc(F)ccc3c(=O)n1-2 [Compound 80]
40 | 50 to 500 | CC1(CCC(=O)Nc2ccc3c(c2)C(=O)c2nc4cc(Cl)ccc4c(=O)n2-3)N=N1 [Compound 73]
41 | < 50 | [2H]C([2H])(Nc1ccc2c(=O)n3c(nc2c1)C(=O)c1cc(F)ccc1-3)c1ccc(F)cc1 [Compound 69]
42 | 50 to 500 | O=c1c2ccccc2nc2n1-c1ccc([N+](=O)[O-])cc1C2 [Compound 62, 8-Nitroindolo[2,1-b]quinazolin-12(6H)-one]
43 | < 50 | O=C1c2cc(SCc3ccccc3)ccc2-n2c1nc1cc(F)cc(F)c1c2=O [Compound 112]
44 | 50 to 500 | CS(=O)(=O)c1ccc2c(c1)Cc1nc3cc(F)ccc3c(=O)n1-2 [Compound 85]
45 | 50 to 500 | O=c1c2cccc(Nc3ccc(F)cc3)c2nc2n1-c1ccc(F)cc1C2=NO (stereo in doubt) [Compound 123, (Z)-8-Fluoro-4-((4-fluorophenyl)amino)-6-(hydroxyimino)indolo[2,1-b]quinazolin-12(6H)-one]
46 | 50 to 500 | O=C1c2cc(F)ccc2-n2c1nc1c(OCc3ccc(F)cc3)cccc1c2=O [Compound 124]
47 | < 50 | CO/N=C1/c2cc(F)ccc2-n2c1nc1cc(-n3ccnc3)ccc1c2=O [Compound 97, (Z)-8-fluoro-3-(1H-imidazol-1-yl)-6-(methoxyimino)indolo[2,1-b]quinazolin-12(6H)-one]
48 | 50 to 500 | NCc1ccc2c(=O)n3c(nc2c1)C(=O)c1cc(F)ccc1-3 [Compound 90, 3-(aminomethyl)-8-fluoroindolo[2,1-b]quinazoline-6,12-dione Hydrochloride Salt]
49 | 50 to 500 | O=C1c2cc(F)ccc2-n2c1nc1ccc(CNc3ccccn3)cc1c2=O [Compound 141, 8-fluoro-2-((pyridin-2-ylamino)methyl)indolo[2,1-b]quinazoline-6,12-dione]
50 | < 50 | NCc1ccc2nc3n(c(=O)c2c1)-c1ccc(F)cc1C3=O [Compound 144, 2-(aminomethyl)-8-fluoroindolo[2,1-b]quinazoline-6,12-dione hydrochloride Salt]
51 | < 50 | NS(=O)(=O)NCc1ccc2nc3n(c(=O)c2c1)-c1ccc(F)cc1C3=O [Compound 143]
52 | 50 to 500 | CC(C)(C)OC(=O)NCCNC(=O)c1ccc2c(c1)C(=O)c1nc3cc(Cl)ccc3c(=O)n1-2 [Compound 77]
53 | > 500 | CO/N=C1\c2cc(F)ccc2-n2c1nc1cc(CN3CCN(C)CC3)ccc1c2=O [Compound 74]
54 | 50 to 500 | CO/N=C1/c2cc(F)ccc2-n2c1nc1ccc(CN(C)C)cc1c2=O [Compound 138, (Z)-2-((dimethylamino)methyl)-8-fluoro-6-(methoxyimino)indolo[2,1-b]quinazolin-12(6H)-one Trifluoroacetate Salt]
55 | 50 to 500 | O=C1c2cc(SCc3ccccc3)ccc2-n2c1nc1cc(Cl)ccc1c2=O [Compound 78]
